Experimental data published in patent publication US20090018134A1, “Compounds - 945” (AstraZeneca AB, priority 2007, published 2009).

molecular target: T1, mTOR (Homo sapiens, UniProt P42345); assay: In Vitro mTOR Kinase Assay (Echo), Test (a)(ii); type: biochemical; conditions: read-out: mTOR Kinase Assay (Echo)
T1 construct: FLAG; made in house
Outline: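 FLAG-tagged truncated mTOR (residues 1362-2549), expressed in HEK293 and purified via the FLAG tag, phosphorylated a biotinylated peptide over 2 hours at room temperature. EDTA stopped the reaction. Phospho-T389 was detected overnight by AlphaScreen using the p70 S6K T389 antibody with Protein A/streptavidin beads; IC50 reported.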

T1 sequence (P42345 1362-2549): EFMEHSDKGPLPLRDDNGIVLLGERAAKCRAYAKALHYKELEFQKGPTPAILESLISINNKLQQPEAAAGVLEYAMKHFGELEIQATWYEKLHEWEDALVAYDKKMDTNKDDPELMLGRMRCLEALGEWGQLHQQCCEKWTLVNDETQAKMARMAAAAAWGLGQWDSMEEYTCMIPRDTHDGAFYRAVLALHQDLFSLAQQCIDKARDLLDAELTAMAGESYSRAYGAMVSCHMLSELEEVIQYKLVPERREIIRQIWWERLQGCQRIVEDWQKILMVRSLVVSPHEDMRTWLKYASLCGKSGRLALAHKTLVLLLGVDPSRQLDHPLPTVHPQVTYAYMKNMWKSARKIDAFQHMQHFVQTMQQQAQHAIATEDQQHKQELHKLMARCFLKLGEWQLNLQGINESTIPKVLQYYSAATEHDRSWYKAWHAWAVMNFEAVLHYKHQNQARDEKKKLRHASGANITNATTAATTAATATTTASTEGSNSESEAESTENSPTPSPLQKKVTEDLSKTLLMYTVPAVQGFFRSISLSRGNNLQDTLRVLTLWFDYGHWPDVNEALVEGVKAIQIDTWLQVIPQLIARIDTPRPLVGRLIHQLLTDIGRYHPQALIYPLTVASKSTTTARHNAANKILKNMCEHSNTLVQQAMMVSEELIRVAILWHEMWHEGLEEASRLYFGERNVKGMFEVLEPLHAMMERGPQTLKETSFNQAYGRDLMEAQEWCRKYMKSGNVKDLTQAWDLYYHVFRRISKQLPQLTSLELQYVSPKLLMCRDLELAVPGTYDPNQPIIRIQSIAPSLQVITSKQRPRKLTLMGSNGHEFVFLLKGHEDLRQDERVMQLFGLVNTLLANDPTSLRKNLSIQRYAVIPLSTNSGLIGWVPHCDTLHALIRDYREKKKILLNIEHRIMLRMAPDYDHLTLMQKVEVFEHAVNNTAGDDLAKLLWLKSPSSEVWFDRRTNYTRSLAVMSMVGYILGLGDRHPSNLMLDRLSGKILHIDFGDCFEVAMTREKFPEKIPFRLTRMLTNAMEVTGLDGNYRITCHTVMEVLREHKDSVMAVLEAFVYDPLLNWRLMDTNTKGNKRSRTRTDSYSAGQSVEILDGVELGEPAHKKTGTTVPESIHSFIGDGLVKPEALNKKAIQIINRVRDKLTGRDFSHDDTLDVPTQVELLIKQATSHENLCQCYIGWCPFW

| IC50 [nM] | SMILES |
| --- | --- |
| 12.9 | C[C@H]1COCCN1c1cc(C2(S(=O)(=O)C3CCCC3)CC2)nc(-c2ccc(NC(=O)NC3CCC3)cc2)n1 [Example 9a] |
| 4.48 | C[C@H]1COCCN1c1cc(C2(S(=O)(=O)c3ccccc3C(F)(F)F)CC2)nc(-c2ccc(NC(=O)NC3CC3)cc2)n1 [Example 10, 3-Cyclopropyl-1-[4-[4-[(3S)-3-methylmorpholin-4-yl]-6-[1-[2-(trifluoromethyl)phenyl]sulfonylcyclopropyl]pyrimidin-2-yl]phenyl]urea] |
| 55.3 | C[C@H]1COCCN1c1cc(C2(S(C)(=O)=O)CC2)nc(-c2ccc(NC(=O)NC3(CO)CC3)cc2)n1 [Example 2ab, 3-[1-(hydroxymethyl)cyclopropyl]-1-[4-[4-[(3S)-3-methylmorpholin-4-yl]-6-(1-methylsulfonylcyclopropyl)pyrimidin-2-yl]phenyl]urea] |
| 8.28 | C[C@H]1COCCN1c1cc(C2(S(C)(=O)=O)CCC2)nc(-c2ccc(NC(=O)NCc3ncc[nH]3)cc2)n1 [Example 5n, 3-(1H-imidazol-2-ylmethyl)-1-[4-[4-[(3S)-3-methylmorpholin-4-yl]-6-(1-methylsulfonylcyclobutyl)pyrimidin-2-yl]phenyl]urea] |
| 14.9 | C[C@H]1COCCN1c1cc(C2(S(C)(=O)=O)CC2)nc(-c2ccc(NC(=O)NCc3ncn[nH]3)cc2)n1 [Example 2ag, 1-[4-[4-[(3S)-3-methylmorpholin-4-yl]-6-(1-methylsulfonylcyclopropyl)pyrimidin-2-yl]phenyl]-3-(2H-1,2,4-triazol-3-ylmethyl)urea] |
| 0.89 | C[C@H]1COCCN1c1cc(C2(S(=O)(=O)C3CC3)CC2)nc(-c2ccc(NC(=O)Nc3ncns3)cc2)n1 [Example 3w, 1-[4-[4-(1-cyclopropylsulfonylcyclopropyl)-6-[(3S)-3-methylmorpholin-4-yl]pyrimidin-2-yl]phenyl]-3-(1,2,4-thiadiazol-5-yl)urea] |
| 9.13 | CCCNC(=O)Nc1ccc(-c2nc(N3CCOC[C@@H]3C)cc(C3(S(=O)(=O)CC)CC3)n2)cc1 [Example 11h, 3-[4-[4-(1-ethylsulfonylcyclopropyl)-6-[(3S)-3-methylmorpholin-4-yl]pyrimidin-2-yl]phenyl]-1-propyl-urea] |
| 279 | C[C@H]1COCCN1c1cc(C2(S(C)(=O)=O)CC2)nc(-c2ccc(NC(=O)NCCN(C)C)cc2)n1 [Example 2e, 3-(2-dimethylaminoethyl)-1-[4-[4-[(3S)-3-methylmorpholin-4-yl]-6-(1-methylsulfonylcyclopropyl)pyrimidin-2-yl]phenyl]urea] |

same assay, conditions: table of enzyme assay Test (a)(ii); read-out: Test (a)(ii) IC50

| IC50 [nM] | SMILES |
| --- | --- |
| 1.68 | CCNC(=O)Nc1ccc(-c2nc(N3CCOC[C@@H]3C)cc(C3(S(=O)(=O)c4ccc(C)cc4)CC3)n2)cc1 [Example 95q, 1-ethyl-3-[4-[4-[(3S)-3-methylmorpholin-4-yl]-6-[1-(4-methylphenyl)sulfonylcyclopropyl]pyrimidin-2-yl]phenyl]urea] |
| 6.72 | C[C@H]1COCCN1c1cc(C2(S(=O)(=O)C3CCCCC3)CC2)nc(-c2ccc(NC(=O)NC3CCC3)cc2)n1 [Example 26a, 3-cyclobutyl-1-[4-[4-(1-cyclohexylsulfonylcyclopropyl)-6-[(3S)-3-methylmorpholin-4-yl]pyrimidin-2-yl]phenyl]urea] |
| 30 | C[C@H]1COCCN1c1cc(C2(S(=O)(=O)c3ccc(F)cc3)CCC2)nc(-c2ccc(NC(=O)NCc3ncc[nH]3)cc2)n1 [Example 65, 1-[4-[4-[1-(4-Fluorophenyl)sulfonylcyclobutyl]-6-[(3S)-3-methylmorpholin-4-yl]pyrimidin-2-yl]phenyl]-3-(1H-imidazol-2-ylmethyl)urea] |
| 2.64 | C[C@H]1COCCN1c1cc(C2(S(=O)(=O)c3ccccc3)CCC2)nc(-c2ccc(NC(=O)Nc3cnn(C)c3)cc2)n1 [Example 36bv, 1-[4-[4-[1-(benzenesulfonyl)cyclobutyl]-6-[(3S)-3-methylmorpholin-4-yl]pyrimidin-2-yl]phenyl]-3-(1-methylpyrazol-4-yl)urea] |
| 0.274 | C[C@H]1COCCN1c1cc(C2(S(=O)(=O)c3cc(F)cc(F)c3)CC2)nc(-c2ccc(NC(=O)NCCO)cc2)n1 [Example 19g, 1-[4-[4-[1-(3,5-difluorophenyl)sulfonylcyclopro-pyl]-6-[(3S)-3-methylmorpholin-4-yl]pyrimidin-2-yl]phenyl]-3-(2-hydroxyethyl)urea] |
| 3.51 | O=C(NCCO)Nc1ccc(-c2nc(N3CCOCC3)cc(C3(S(=O)(=O)C4CC4)CC3)n2)cc1 [Example 13d, 1-[4-[4-(1-cyclopropylsulfonylcyclopropyl)-6-morpholin-4-ylpyrimidin-2-yl]phenyl]-3-(2-hydroxyethyl)urea] |
| 54.7 | Cc1csc(S(=O)(=O)C2(c3cc(N4CCOC[C@@H]4C)nc(-c4ccc(NC(=O)NCCN(C)C)cc4)n3)CC2)n1 [Example 25f, 3-(2-dimethylaminoethyl)-1-[4-[4-[(3S)-3-methylmorpholin-4-yl]-6-[1-[(4-methyl-1,3-thiazol-2-yl)sulfonyl]cyclopropyl]pyrimidin-2-yl]phenyl]urea] |
| 4.18 | C[C@H]1COCCN1c1cc(C2(S(=O)(=O)c3ccccc3)CCC2)nc(-c2ccc(NC(=O)NCCCO)cc2)n1 [Example 64r, 1-[4-[4-[1-(benzenesulfonyl)cyclobutyl]-6-[(3S)-3-methylmorpholin-4-yl]pyrimidin-2-yl]phenyl]-3-(3-hydroxypropyl)urea] |
| 12 | CNC(=O)Nc1ccc(-c2nc(N3CCOC[C@@H]3C)cc(C3(S(=O)(=O)c4cc(F)ccc4F)CC3)n2)cc1 [Example 60, 1-[4-[4-[1-(2,5-Difluorophenyl)sulfonylcyclopropyl]-6-[(3S)-3-methylmorpholin-4-yl]pyrimidin-2-yl]phenyl]-3-methylurea] |
| 3.88 | C[C@H]1COCCN1c1cc(C2(S(=O)(=O)c3ccc(Cl)cc3)CC2)nc(-c2ccc(NC(=O)NC3CCC3)cc2)n1 [Example 27a, 1-[4-[4-[1-(4-chlorophenyl)sulfonylcyclopropyl]-6-[(3S)-3-methylmorpholin-4-yl]pyrimidin-2-yl]phenyl]-3-cyclobutylurea] |
| 15.1 | C[C@H]1COCCN1c1cc(C2(S(=O)(=O)C3CCOCC3)CC2)nc(-c2ccc(NC(=O)NC3CCC3)cc2)n1 [Example 94f, 3-cyclobutyl-1-[4-[4-[(3S)-3-methylmorpholin-4-yl]-6-[1-(oxan-4-ylsulfonyl)cyclopropyl]pyrimidin-2-yl]phenyl]urea] |
| 1.35 | C[C@H]1COCCN1c1cc(C2(S(=O)(=O)C(C)(C)C)CC2)nc(-c2ccc(NC(=O)NC3CC3)cc2)n1 [Example 18, 1-[4-[4-(1-tert-Butylsulfonylcyclopropyl)-6-[(3S)-3-methylmorpholin-4-yl]pyrimidin-2-yl]phenyl]-3-cyclopropylurea] |
| 17.6 | C[C@H]1COCCN1c1cc(C2(S(=O)(=O)CCO)CC2)nc(-c2ccc(NC(=O)NCCC#N)cc2)n1 [Example 16g, 3-(2-cyanoethyl)-1-[4-[4-[1-(2-hydroxyethylsulfonyl)cyclopropyl]-6-[(3S)-3-methylmorpholin-4-yl]pyrimidin-2-yl]phenyl]urea] |
| 4.39 | C[C@H]1COCCN1c1cc(C2(S(=O)(=O)CCCO)CC2)nc(-c2ccc(NC(=S)NC3CCC3)cc2)n1 [Example 37d, 3-cyclobutyl-1-[4-[4-[1-(3-hydroxypropylsulfonyl)cyclopro-pyl]-6-[(3S)-3-methylmorpholin-4-yl]pyrimidin-2-yl]phenyl]thiourea] |
| 2.81 | C[C@H]1COCCN1c1cc(C2(S(=O)(=O)c3ccccn3)CC2)nc(-c2ccc(NC(=O)Nc3ccon3)cc2)n1 [Example 64ag, 1-[4-[4-[(3S)-3-methylmorpholin-4-yl]-6-(1-pyridin-2-ylsulfonylcyclopropyl)pyrimidin-2-yl]phenyl]-3-(1,2-oxazol-3-yl)urea] |
| 12.5 | C[C@H](CO)NC(=O)Nc1ccc(-c2nc(N3CCOC[C@@H]3C)cc(C3(S(=O)(=O)C4CC4)CCC3)n2)cc1 [Example 64y, 1-[4-[4-(1-cyclopropylsulfonylcyclobutyl)-6-[(3S)-3-methylmorpholin-4-yl]pyrimidin-2-yl]phenyl]-3-[(2R)-1-hydroxypropan-2-yl]urea] |
| 32.1 | CCS(=O)(=O)C1(c2cc(N3CCOC[C@@H]3C)nc(-c3ccc(NC(=S)NCCCO)cc3)n2)CCC1 [Example 88, 1-[4-[4-(1-Ethylsulfonylcyclobutyl)-6-[(3S)-3-methylmorpholin-4-yl]pyrimidin-2-yl]phenyl]-3-(3-hydroxypropyl)thiourea] |
| 6.05 | C[C@H]1COCCN1c1cc(C2(S(=O)(=O)C3CCCCC3)CC2)nc(-c2ccc(NC(=O)NC3CC3)cc2)n1 [Example 26, 1-[4-[4-(1-Cyclohexylsulfonylcyclopropyl)-6-[(3S)-3-methylmorpholin-4-yl]pyrimidin-2-yl]phenyl]-3-cyclopropylurea] |
| 85.8 | C[C@H]1COCCN1c1cc(C2(S(=O)(=O)CCCO)CC2)nc(-c2ccc(NC(=O)NC(C)(C)C)cc2)n1 [Example 36cn, 3-tert-butyl-1-[4-[4-[1-(3-hydroxypropylsulfonyl)cyclopropyl]-6-[(3S)-3-methylmorpholin-4-yl]pyrimidin-2-yl]phenyl]urea] |
| 9.21 | Cc1nc(S(=O)(=O)C2(c3cc(N4CCOC[C@@H]4C)nc(-c4ccc(NC(=O)NCCO)cc4)n3)CC2)sc1C [Example 80c, 1-[4-[4-[1-[(4,5-dimethyl-1,3-thiazol-2-yl)sulfonyl]cyclopropyl]-6-[(3S)-3-methylmorpholin-4-yl]pyrimidin-2-yl]phenyl]-3-(2-hydroxyethyl)urea] |
| 32.3 | C[C@H]1COCCN1c1cc(C2(S(=O)(=O)c3ccccn3)CCCC2)nc(-c2ccc(NC(=O)NCCC#N)cc2)n1 [Example 36ad, 3-(2-cyanoethyl)-1-[4-[4-[(3S)-3-methylmorpholin-4-yl]-6-(1-pyridin-2-ylsulfonylcyclopentyl)pyrimidin-2-yl]phenyl]urea] |
